“Also recorded” adds a separate entry of the source.
Experiments:
[1] = system: lasB-gfp(ASV) reporter in P. aeruginosa PAO-JP2 biofilm; assay: OdDHL-mediated signalling in PAO-JP2 flowcell biofilm, lasB-gfp(ASV) reporter, CSLM; type: cell-based, Pseudomonas aeruginosa
Procedure: (§1) P. aeruginosa biofilms. Biofilms were grown at 30° C. in three-dimensional flow cells (Christensen et al., 1999) with individual channel dimensions of 0.3×4×40 mm supplied With ABt minimal medium supplemented with 2% LB. The flow system was assembled and prepared as described by Christensen et al. (1999). The substratum consisted of a microscope glass coverslip (Knittel 24×50 mm st1, Knittel Glaser, Braunschweig, Germany). Cultures for inoculation of the flow channels were prepared in the following way: P. aeruginosa strains were streaked on LB plates with the appropriate antibiotics and incubated for 24 h at 37° C. From each plate a single colony was used for inoculation of 10 ml ABt with 10% LB. The cultures were grown at, 30° C. for 18 h before they were diluted to an OD600 nm of 0.1 in sterile 0.9% NaCl and used for inoculation of the flow channels. Medium flow was kept at a constant rate of 3 mL/h, equivalent to a mean flow velocity of 0.7 mm/s, using a Watson-Marlow 205S peristaltic pump (Watson-Marlow, Falmouth, England). Biofilms were grown for 24 hours before being shifted to media containing AHL and furanone.
(§2) Scanning confocal laser microscopy (SCLM). Microscopic inspection and image acquisition were performed an a scanning confocal laser microscope (model TCS4D, Leica Lasertechnik GmbH, Heldelberg, Germany) equipped with a 63×/1.32-0.6 oil objective. The microscope was equipped with a motorized and programmable xy-stage, which was used for monitoring single colonies during the biofilm experiments. At the beginning of each online experiment, the microscope was programmed to track single randomly selected microcolonies; the sensitivity of photo multipliers and the laser intensity were adjusted and thereafter kept constant through out the duration of the experiments. Image scanning was carried out using the 488 nm and 568 nm lines of an Ar/Kr laser for detection of Gfp and Rfp, respectively. Visualization of captured images was performed using the IMARIS software package (Bitplane AG, Zúrich, Switzerland) running on a Silicon Graphics Indigo 2 workstation (Silicon Graphics, Mountain View, Calif. USA).
Inhibition of AHL-mediated signalling in P. aeruginosa biofilms. The lasB-gfp(ASV) reported was integrated into the chromosome of PAO-JP2 to ensure stable segregation and a constant gene dosage of the reported system. The strain was growth in flowcells for 24 hours in ABt-LB medium and a 10-15 μm thick biofilm developed. The media flow was subsequently switched to ABt-LB medium containing the appropriate AHL and furanone concentrations. The development of green fluorescence was monitored online by CSLM for 8 hours.

[2] = system: V. fisheri lux quorum sensing system (LuxR); assay: V. fisheri luxR PluxI-gfp(ASV) reporter in PAO-JP2 biofilm; type: cell-based, Pseudomonas aeruginosa
Procedure: as §1, §2
Repression of LuxR-activated quorum sensing controlled gene transcription. We speculated that the AHL-antagonstic properties of furanone 56 was specific to the P. aeruginosa las quorum sensing system. To test this, a previously published quorum sensing reporter based on the Vibro fisherf luxR gene and Pluxl-gfp(ASV) (Anderson at al, 2001; Wu et al, 2000) was transferred to PAO-JP2.

E. coli MT102 = assay: Growth of E. coli MT102; type: cell-based, Escherichia coli; conditions: data not shown
Procedure: Effect of the furanone in a heterologous background. The direct regulation exerted by the las regulon on lasB expression is well described by numerous studies (Gambello & Iglewski, 1991: Pearson et al., 1994; Pearson et al., 1997). Regulatory complexity is added by the observation that the las quorum sensing circuit itself is subject to global regulators (Albus et al., 1997; Whiteley et al., 2000) and that lasB expression is also controlled by other regulators than LasR (Brumlik & Storey, 1992; Pesci et al., 1999; Schictman et al., 1995). It was, therefore, important to rule out that QSI effect, observed is not caused by furanone interaction with high levels of control. Since there is no AHL-based quorum sensing system present in Escherichia coli (Williams et al., 2000), this bacterium provides an unbiased and well-defined genetic background for studying the direct effects of the furanone on the P. aeruginosa las quorum sensing system. We repeated the above-described experiments using E. coli MT102 as a heterologous host for the reporter system. […] This is likely to be attributed to the increased copy number of the reporter plasmid.

elastase = assay: Virulence factor production: elastase (proteolytic) activity of PAO-JP2 supernatant; type: cell-based, Pseudomonas aeruginosa; conditions: PAO-JP2, 70 nm OdDHL plus 3 μg/ml and 5 μg/ml furanone 56
Procedure: Measurements of virulence factors. PAO-JP2 was grown in LB medium at 37° C. and shaking at 250 rpm to an OD600 nm of 1.0. The culture was divided into seven subcultures, which were added 0, 70, or 1000 nm OdDHL and 0. 3. or 5 μg/ml furanone 58. The cultures were grown for an additional 4 hours at 37° C. The proteolytic activity was measured as described by Ayora & G{overscore (o)}tz (1994). Azocasein (250 μl 2%, Sigma, St. Louis, Mo.) in 50 mM Tris/HCl and steril-filtered (Ø 0.2 μm) supernatant (150 μl) were incubated for 4 h at […] After precipitation of undigested substrate with trichloroacetic acid (1.2 ml 10%) for 15 minutes, followed by 10 minutes centrifugation at 1000 rpm, NaOH (1.4 ml 1 M) were added to the supernatant. The relative protease activity was measured as the absorbance at 440 nm (OD440 nm) of the supernatant divided by the optical density of the culture (OD600 nm ).

SMILES: O=C1C=C/C(=C/Br)O1 [furanone 56]
- induction of green fluorescence in biofilm ([1]; 40 nM OdDHL and 2 μl/ml furanone 56, 8 hours): did not lead to induction of green fluorescence
- induction of green fluorescence in biofilm ([1]; 80 nM OdDHL and 2 μg/ml furanone 56): green fluorescence was induced
- induction of green fluorescence in biofilm ([1]; 80 nM OdDHL and 4 μg/ml furanone, data not shown): Induction of green fluorescence was established
- green fluorescence in biofilm ([1]; 4 μg/ml alone, data not shown): No green fluorescence was observed
- green fluorescence of biofilm ([2]; 250 nM OHHL and 15 μg/ml furanone 56, 7 hours): completely disappeared
- green fluorescence of biofilm ([2]; 250 nM OHHL and 15 μg/ml furanone 56, six hours): almost completely disappeared
- green fluorescence of biofilm ([2]; 250 nM OHHL and 15 μg/ml furanone 56, two hours): significantly less green fluorescent; also recorded: decreased significantly
- effect on growth (E. coli MT102): no effect on growth
- elastase activity (elastase): close to the uninduced level

Reference: US20040147595A1, “Biofilm degrading or sloughing compositions and methods” (priority 2001, published 2004)
